Data published in patent publication US12251368B2, “Continuous administration of pharmaceutical composition for treatment of neurodegenerative disorders” (InTrance Medical Systems Inc., priority 2018, dated 2025).
Values joined by “and” are separate entries in the source; they are usually repeats but may differ in a detail not shown here. Equal values may be shown once.

Key:
[1] = cited from earlier work
[2] = target: T1, peripheral dopamine decarboxylase (Homo sapiens, UniProt P20711); details: KINSON prescribing information; cited from earlier work
T1 construct: host or cells: patients (peripheral tissues)
T1 sequence (P20711 1-480): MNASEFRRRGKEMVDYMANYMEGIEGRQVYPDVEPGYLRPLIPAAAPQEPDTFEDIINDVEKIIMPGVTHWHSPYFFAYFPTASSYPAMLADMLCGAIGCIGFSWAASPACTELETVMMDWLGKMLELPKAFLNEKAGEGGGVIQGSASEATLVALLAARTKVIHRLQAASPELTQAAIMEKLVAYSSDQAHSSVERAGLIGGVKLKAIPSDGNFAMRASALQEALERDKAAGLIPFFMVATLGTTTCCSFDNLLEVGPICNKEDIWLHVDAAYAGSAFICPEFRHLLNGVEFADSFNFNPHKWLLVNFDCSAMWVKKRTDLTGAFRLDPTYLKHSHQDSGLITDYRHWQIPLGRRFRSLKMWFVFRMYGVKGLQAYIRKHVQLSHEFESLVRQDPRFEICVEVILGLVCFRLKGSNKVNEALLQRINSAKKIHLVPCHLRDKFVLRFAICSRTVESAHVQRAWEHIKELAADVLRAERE

[3] = Storage stability / shelf life of intra-intestinal gel; type: physicochemical
[4] = in vivo; cited from earlier work
[5] = cited from earlier work; remark: listed apart in the source
[6] = intravenous administration (3 mg/kg); cited from earlier work
[7] = in the presence of COMT inhibitors; literature reports; cited from earlier work

In the case of `C[C@@](Cc1ccc(O)c(O)c1)(NN)C(=O)O` [Carbidopa, (−)-L-α-hydrazino-α-methyl-β-(3,4-dihydroxybenzene) propanoic acid monohydrate], the solubility in water [1] is listed as “slightly soluble in water”, the “dose at which peripheral dopamine decarboxylase is saturated” value [2] is listed as 70-100 mg per day and the “effect of storage in a light reducing container on degradation” value ([3]; light reducing container, such as an aluminum bag) is listed as “some positive effect”. For the same compound, the “crossing of the blood-brain barrier” value [4] was “does not cross the blood-brain barrier”.
For `N[C@@H](Cc1ccc(O)c(O)c1)C(=O)O` [Levodopa, (−)-L-α-amino-β-(3,4-dihydroxybenzene) propanoic acid], the solubility in water [1] is listed as “slightly soluble in water”, the bioavailability ([5]; administered via DUODOPA gel, same as in a tablet) is listed as 81-98% and the “fraction metabolized to dopamine before levodopa reaches the brain” value ([5]; intake of levodopa alone) is listed as “more than 90%”. The “stability in intra-intestinal gel” value ([3]; prior art LCIG and gel compositions of the invention) was “relatively stable” and the “crossing of the blood-brain barrier” value [4] was “does cross the blood-brain barrier”.
For `Cc1ccc(C(=O)c2cc(O)c(O)c([N+](=O)[O-])c2)cc1` [Tolcapone, (3,4-Dihydroxy-5-nitrophenyl)(4-methylphenyl)methanone], the elimination half-life [6] is listed as 2.9 h and the Levodopa bioavailablity increase [7] is listed as 33% and 25%.
In the case of `NCCc1ccc(O)c(O)c1` [dopamine, 3,4-dihydroxyphenethylamine], the “crossing of the blood-brain barrier” value [4] is given as “does not cross the blood-brain barrier”.
